From patent US20240316059A1, “PEPTIDE DRUG CONJUGATES” (Oncopeptides AB, priority 2021, published 2024) come the findings set out here.

Structures are written as SMILES. Where two headings read alike, the source gives them in different places.

In data set [1] the test system is SU-DHL-8. In words: In vitro cytotoxicity, SU-DHL-8 (B-cell non-Hodgkin Lymphoma). The class given is cell-based. The note with it: Homo sapiens, SU-DHL-8, 72 h, read-out: Cytotoxicity IC50, SU-DHL-8. On the procedure: (§1) All cells were cultivated in RPMI medium 1640 (IX). All media was supplemented with 10 μg/μl penicillin/streptomycin, 10% heat inactivated FBS, 0.1 mM Sodium Pyruvate, 1×MEM NEAA (ThermoFisher) and 1 mM HEPES. The DERL-2 cells had higher FBS (20%) and 40 ng/mL IL-2 was added. hPBMCs were thawed and allowed to acclimatise overnight and then stimulated with 10 μg/mL PHA-M and 40 ng/mL IL-2 for 4 hours before being exposed to test compounds. All cells, except for hPBMCs, were grown to reach log phase before being exposed to the test compounds.
(§2) Test compounds were dissolved in 100% DMSO and added to a 384 assay plate. Additional DMSO was added to maintain the same final DMSO concentration (0.2%) in all wells. 25 μL cell suspension with a concentration of 100000 cells/mL was added to each well. The cells were cultured in a CO2 incubator at 37° C. for 72 h. Plates were equilibrated to room temperature for 30 minutes before adding 20 μL CellTiter-Glo® 2.0 (Promega) reagent to all wells. The plate was then allowed to stabilize for 20 minutes before recording the luminescence (Em filter 700 nm) in an Envision plate reader.

The test system of data set [2] is SU-DHL-4 human lymphoma cell line. In words: In ovo chicken embryo xenograft model, tumour weight. As to conditions: 100 μL injected day 11, 13, 15, 17, tumours weighed day 18. The class given is in vivo. As to the method:
Methods: Inoculation of Fertilized White Leghorn eggs was performed with 3×10^6 SU-DHL-4 tumour cells on day 9 (post-fertilisation). Viable eggs were injected with 100 μL of either Example compound 1 (8.4 uM (0.008 mg/kg), 33.5 uM (0.033 mg/kg), 167.5 uM (0.164 mg/kg)), bendamustine (8.4 uM (0.005 mg/kg), 33.5 uM (0.02 mg/kg), 167.5 uM (0.1 mg/kg)) or vehicle on day 11, 13, 15 and 17. On day 18, tumours were removed and weighed.

Data set [3] concerns Toledo. In words: In vitro cytotoxicity, Toledo (Diffuse Large B Cell Lymphoma). The class given is cell-based. The note with it: Homo sapiens, 72 h, read-out: Cytotoxicity IC50, Toledo. As to the method:
as §1, §2

Data set [4] concerns MM.1S cells. Put plainly: In vitro cytotoxic potency in MM.1S cell viability assay (CellTiter-Glo). The class given is cell-based, human. As to conditions: Homo sapiens, MM1.S, 72 h. A digest of the protocol: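 Log-phase MM.1S cells in supplemented RPMI 1640 were seeded at 100000 cells/mL with compound (0.2% DMSO final). After 72 h at 37 °C in CO2, viability was measured by CellTiter-Glo 2.0 luminescence.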

The subject of data set [5] is HG-3. In words: In vitro cytotoxicity, HG-3 (Chronic Lymphocytic Leukemia). In kind it is cell-based. As to conditions: Homo sapiens, HG-3, 72 h, read-out: Cytotoxicity IC50, HG-3. As to the method:
as §1, §2

A short description of data set [6]: In vitro cytotoxicity, human peripheral blood mononuclear cells. The class given is cell-based. The note with it: CellTiter-Glo 2.0, stimulated with PHA-M and IL-2, read-out: Cytotoxicity IC50, hPBMC. As to the method:
as §1, §2

The nature of data set [7]: In vitro cytotoxicity, BJ fibroblasts (normal cells). The class given is cell-based. As to conditions: human, CellTiter-Glo 2.0. On the procedure:
as §1, §2

Data set [8] relates to SC-1. In words: In vitro cytotoxicity, SC-1 (B cell Lymphoma). In kind it is cell-based. As to conditions: Homo sapiens, SC-1, 72 h, read-out: Cytotoxicity IC50, SC-1. On the procedure:
as §1, §2

The subject of data set [9] is OPM-2. Put plainly: In vitro cytotoxicity, OPM-2 (Multiple Myeloma). In kind it is cell-based. The note with it: Homo sapiens, OPM-2, 72 h, read-out: Cytotoxicity IC50, OPM-2. On the procedure:
as §1, §2

Data set [10] concerns DERL-2. In words: In vitro cytotoxicity, DERL-2 (T cell Lymphoma). In kind it is cell-based. As to conditions: Homo sapiens, 72 h, read-out: Cytotoxicity IC50, DERL-2. On the procedure: as §1, §2
Where [11] appears, read: read-out: Cytotoxicity IC50, MM.1S.

For `Cn1c(CCCC(=O)O)nc2cc(N(CCCl)CCCl)ccc21` [Bendamustine, bendamustine, reference compound], the IC50 is 14.3 µM in [1]; 12.5 µM in data set [3]; 24 µM in [4] (setting [11]); 24 µM in [4] (read-out: MM.1S IC50); 25.8 µM in data set [5]; 25.1 µM in [8]. For the same molecule, the IC50 worked out at 81.9 µM in data set [9] and 21.1 µM in [10]. The “Tumour reduction compared to vehicle” value came to 30% in [2] (33.5 μM) and 76% in data set [2] (167.5 μM). For the same molecule, the half-inhibitory concentration (IC50) at 72 h is 15.8 µM in [6] and above 599 µM in data set [7].
Consider `CCOC(=O)[C@H](CC(C)C)NC(=O)[C@@H](N)CCc1nc2cc(N(CCCl)CCCl)ccc2n1C` [Example 1, Ethyl (2S)-2-[[(2S)-2-amino-4-[5-[bis(2-chloroethyl)amino]-1-methyl-benzimidazol-2-yl]butanoyl]amino]-4-methyl-pentanoate], for which the 50% inhibitory concentration (IC50) is 0.0199 µM in data set [1]; 0.0045 µM in data set [3]; 0.0068 µM in data set [4] (setting [11]); 0.0068 µM in [4] (read-out: MM.1S IC50); 0.0257 µM in data set [5]; 0.0133 µM in data set [8]. Also, the IC50 in data set [9] is 0.173 µM; in [10], 0.006 µM. Moreover, the “Tumour reduction compared to vehicle” value was 38% in data set [2] (8.4 μM), 70% in data set [2] (33.5 μM) and 82% in data set [2] (167.5 μM). Further, the figures for the IC50 at 72 h in data set [6] and in data set [7] were 0.0054 µM and 1.07 µM, respectively.
